The source of these data is PMC5705984, “Membrane-Active Properties of an Amphitropic Peptide from the CyaA Toxin Translocation Region” (Toxins, 2017).

Entries after “also recorded” stand apart in the source; their conditions may differ.

This data set in a line: Peptide partition from solution to membrane followed by tryptophan intrinsic fluorescence titration. As to conditions: SUVs DOPC/DOPE/DOPG/Chol 4:3:2:1; for partition coefficient KX: Trp fluorescence titration (exc. 280 nm, ratio 340/380 nm), 20 mM HEPES, 150 mM NaCl, pH 7.4, 25 °C; for ability to interact with / partition into membranes: tryptophan fluorescence and CD; for ΔG (free energy of membrane partition): ΔG=−RTln(KX), pH 7.4, 25 °C. Type of data set: physicochemical. The procedure: Small unilamellar vesicles (SUVs) were prepared at a lipid concentration of 10 mM from POPC and POPG at a molar ratio of 10:0 or 8:2 or from DOPC, DOPE, DOPG, Chol at molar ratio 10:0:0:0, 8:0:2:0, 7:3:0:0, 7:0:0:3, 6:3:0:1, and 4:3:2:1 in buffer A, as previously described. Briefly, SUVs were prepared by reverse-phase evaporation and passed through polycarbonate filters 0.8-, 0.4-, and 0.2-μm (Merck Millipore, Darmstadt, Germany). Vesicles were sonicated using a sonicator tip and their hydrodynamic diameters, dispersity, and charge were checked by dynamic light scattering (DLS) and electrophoretic mobility using a NanoZS instrument (Malvern Instruments, Orsay, France).
Fluorescence titrations were performed with a FP-8200 Jasco spectrofluorimeter, equipped with a Peltier-thermostated ETC-272T (25 °C). A bandwidth of 5 nm was used for both excitation and emission beams. Fluorescence experiments were carried out in a 109.004F-QS cuvette (Hellma, France) with constant stirring. Fluorescence emission was recorded between 300 and 400 nm at a scan rate of 200 nm/min, with an excitation wavelength of 280 nm. Fluorescence emission spectra were corrected for SUV light scattering. Maximum emission wavelength (λmax) and fluorescence intensity ratio at 330 nm over 370 nm (P454-derived peptides) or at 340 nm over 380 nm (CyaA-derived peptides) were used to report peptide-membrane interaction and to measure the partition coefficient KX.
The partition coefficient KX is defined as the ratio of protein concentrations in the lipid and in buffer phases. It is expressed as follows:
KX=PL/PW·[W]/[L] , providing PW/PL=[W]/KX[L] , where PW is the concentration of peptide in solution, PL the concentration of peptides partitioning into lipid membrane, [W] represents the concentration of water, and [L] the lipid concentration.
The fraction of peptide partitioned into the membrane phase, fPL, is equal to: fPL=PL/PT=PL/PL+PW=1/(PW/PL)+1=1/([W]/KX[L])+1
The partition coefficient is related to the apparent dissociation constant as follows: KX * KD = [W] with KD * PL = PW * [L]. The equation fPL is fitted to the experimental data using the KaleidaGraph software, providing KX. The free energy corresponding to the transfer of the peptide from the aqueous phase to the lipid phase is given by the equation ΔG=−RTln(KX) , where ΔG is the free energy in kcal/mol, R the gas constant (R = 1.98 × 10^−3 kcal/mol/K), and T the temperature in Kelvin.

“Ac-IIEKLANDYARKIDELGW-NH2 [Peptide P717]”: the “partition coefficient KX” value is reported as 60 000, the “ability to interact with / partition into membranes” value is given as “able to interact with membranes” and the “ΔG (free energy of membrane partition)” value is given as -6.5 kcal/mol.
Turning to Ac-IPAAVLDGIKAVAKEKNW-NH2 [Peptide P19], the “ability to interact with / partition into membranes” value is listed as “no detectable change of tryptophan fluorescence or CD signature; also recorded: do not”.
As for “Ac-LVQQSHYADQLDKLAQESSAYGW-NH2 [Peptide P626]”, the “ability to interact with / partition into membranes” value is “no detectable change of tryptophan fluorescence or CD signature; also recorded: do not”.
Regarding “Ac-QEAASLSAAVFGLGEASSAVAETVSGFFRGW-NH2 [Peptide P495]”, the “partition coefficient KX” value is on record as 130 000, the “ability to interact with / partition into membranes” value is given as “able to interact with membranes” and the “ΔG (free energy of membrane partition)” value is -6.9 kcal/mol.
For “Ac-TTEISKSALELAAITGNW-NH2 [Peptide P777]”, the “ability to interact with / partition into membranes” value is “no detectable change of tryptophan fluorescence or CD signature; also recorded: do not”.
